From patent US9827219B2, “Compositions and methods for lowering levels of high-sensitivity C-reactive protein (HS-CRP) in a subject” (priority 2012, dated 2017)

Experiments:
ICAM-1 = experiment: ANCHOR study (fasting TG ≧200 and <500 mg/dl despite statin), ICAM-1; type: in vivo, human; conditions: ANCHOR ITT, week 12
Description: (§1) Parameters (a)-(y) can be measured in accordance with any clinically acceptable methodology. For example, triglycerides, total cholesterol, HDL-C and fasting blood sugar can be sample from serum and analyzed using standard photometry techniques. VLDL-TG, LDL-C and VLDL-C can be calculated or determined using serum lipoprotein fractionation by preparative ultracentrifugation and subsequent quantitative analysis by refractometry or by analytic ultracentrifugal methodology. Apo A1, Apo B and hsCRP can be determined from serum using standard nephelometry techniques. Lipoprotein (a) can be determined from serum using standard turbidimetric immunoassay techniques. LDL particle number and particle size can be determined using nuclear magnetic resonance (NMR) spectrometry. Remnants lipoproteins and LDL-phospholipase A2 can be determined from EDTA plasma or serum and serum, respectively, using enzymatic immunoseparation techniques. Oxidized LDL, intercellular adhesion molecule-1 and interleukin-2 levels can be determined from serum using standard enzyme immunoassay techniques. These techniques are described in detail in standard textbooks, for example Tietz Fundamentals of Clinical Chemistry, 6th Ed. (Burtis, Ashwood and Borter Eds.), WB Saunders Company.
A multi-center, placebo-controlled, randomized, double-blind, 12-week study was performed to evaluate the efficacy and safety of >96% E-EPA in patients with fasting triglyceride levels ≧200 mg/dl and <500 mg/dl despite statin therapy (the mean of two qualifying entry values needed to be ≧185 mg/dl and at least one of the values needs to be ≧200 mg/dl). The primary objective of the study was to determine the efficacy of >96% E-EPA 2 g daily and 4 g daily, compared to placebo, in lowering fasting TG levels in patients with high risk for cardiovascular disease and with fasting TG levels ≧200 mg/dL and <500 mg/dL, despite treatment to LDL-C goal on statin therapy. […]

RLP-C = RLP-C in patients with diabetes mellitus-2 (Example 2); type: in vivo, human; conditions: 4 g/day, 12 weeks, on statin
Description: as §1
The effect of >96% E-EPA on lipid and inflammatory parameters was evaluated in patients with fasting triglyceride levels ≧150 mg/dl and <499 mg/dl on concomitant statin therapy. Patients with diabetes mellitus-2 were randomized and treated with either 2 g/day >96% E-EPA, 4 g/day >96%, or placebo for twelve weeks. At the end of the treatment period, several diabetes efficacy endpoints were evaluated including, TG, LDL-C, non-HDL-C, VLDL-C, Lp-PLA2, Apo B, TC, HDL-C, VLDL-TG, hs-CRP, oxLDL, and RLP-C.

## CC/C=C\C/C=C\C/C=C\C/C=C\C/C=C\CCCC(=O)OCC [AMR101, all-cis eicosa-5,8,11,14,17-pentaenoic acid ethyl ester]
ICAM-1; 2 g/day
  ICAM-1 change from baseline (median): 0.5%
ICAM-1; 4 g/day
  ICAM-1 change from baseline (median): 0.8%
  ICAM-1 end-of-treatment value (median): 270.0 ng/mL
RLP-C; less-controlled diabetes (HbA1c ≧ median of 6.8%)
  Median placebo-adjusted percent change in RLP-C from baseline to study end: −21.3%
RLP-C; total diabetes
  Median placebo-adjusted percent change in RLP-C from baseline to study end: −25.0%
RLP-C; well-controlled diabetes (HbA1c < median of 6.8%)
  Median placebo-adjusted percent change in RLP-C from baseline to study end: −26.7%
